{"source": "patent US20120225789A1", "about": "“DNA REPAIR OR BRCA1-LIKE GENE SIGNATURE” (Baylor College of Medicine, priority 2009, published 2012)", "origin": "cited, not measured here", "data": [{"tested_on": "mammary tumors in which BRCA1 protein has been lost", "conditions": "mice spontaneously developing BRCA1-lost mammary tumors", "values": [{"smiles": "N.N.[Cl][Pt][Cl]", "note": "[cisplatin]", "response of mice to chemotherapy": "highly sensitive"}, {"smiles": "CC(=O)O[C@@]12CO[C@@H]1C[C@H](O)[C@@]1(C)C(=O)[C@H](O)C3=C(C)[C@@H](OC(=O)[C@H](O)[C@@H](NC(=O)OC(C)(C)C)c4ccccc4)C[C@@](O)([C@@H](OC(=O)c4ccccc4)[C@H]21)C3(C)C", "note": "[docetaxel]", "response of mice to chemotherapy": "resistance"}, {"smiles": "COc1cccc2c1C(=O)c1c(O)c3c(c(O)c1C2=O)C[C@@](O)(C(=O)CO)C[C@@H]3O[C@H]1C[C@H](N)[C@H](O)[C@H](C)O1", "note": "[doxorubicin]", "response of mice to chemotherapy": "highly sensitive"}]}]}
